According to ChEMBL document CHEMBL5360670, “Novel Dihydroorotate Dehydrogenase Inhibitors for Treating Acute Myelogenous Leukemia” (ACS Med Chem Lett, 2023):

Columns and labels:
MOLM-13 = assay: Cytotoxicity against human MOLM-13 cells assessed as reduction in cell viability incubated for 72 hrs by Celltiter-glo luminescent assay; assay type: functional, cell-based; details: MOLM-13, 72 h
[1] = molecular target: Dihydroorotate dehydrogenase (quinone), mitochondrial (Homo sapiens, UniProt Q02127); assay: Inhibition of human DHODH using dihydroorotate and CoQ6 as substrate by DCIP dye based spectrophotometry analysis
Dihydroorotate dehydrogenase (quinone), mitochondrial, sequence (Q02127 whole entry): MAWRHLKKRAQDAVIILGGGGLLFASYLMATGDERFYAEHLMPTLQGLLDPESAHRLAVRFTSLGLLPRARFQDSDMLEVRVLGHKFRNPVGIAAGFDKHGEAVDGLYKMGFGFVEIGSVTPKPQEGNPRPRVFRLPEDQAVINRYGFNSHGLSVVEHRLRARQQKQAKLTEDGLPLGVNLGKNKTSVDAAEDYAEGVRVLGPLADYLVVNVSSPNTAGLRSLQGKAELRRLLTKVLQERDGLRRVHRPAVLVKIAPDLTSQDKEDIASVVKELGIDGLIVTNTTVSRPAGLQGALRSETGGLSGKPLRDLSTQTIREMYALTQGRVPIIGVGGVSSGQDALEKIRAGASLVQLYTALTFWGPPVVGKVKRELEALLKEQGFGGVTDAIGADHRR

IC50 [1] [nM] | SMILES | IC50 (MOLM-13) [nM]
 | Cc1ccccc1-n1cc(C(C)C)c2cc(-c3ccc(C)c(N)n3)c(F)cc2c1=O | 0.02
 | Cc1ccccc1-n1nc(C(C)C)c2cc(-c3cn(C)c(C(C)(C)O)n3)c(F)cc2c1=O | 0.09
 | Cc1ccccc1-n1cc(C(C)C)c2cc(-c3cn(C)c(C(C)(C)O)n3)c(F)cc2c1=O | 0.08
 | Cc1ccccc1-n1cc(C(C)C)c2cc(-c3cn(C)c([C@@H](C)O)n3)c(F)cc2c1=O | 0.1
0.54 | [2H]C([2H])([2H])n1cc(-c2cc3c(C(C)C)cn(-c4ccccc4C)c(=O)c3cc2F)nc1C(C)(C)O | 0.04
 | Cc1ccccc1-n1cc(C(C)C)c2cc(-c3nc(C(C)(C)O)n(C)n3)c(F)cc2c1=O | 0.08
